Usually EC50 stands for the midpoint of the concentration-response curve.

Assay [1] deals with T1, THRβ (pGAL4-THRβ-LBD) (Homo sapiens, UniProt P10828).
T1 construct: expressed in transfected cells; host or cells: HEK293T
T1 sequence (P10828 217-461): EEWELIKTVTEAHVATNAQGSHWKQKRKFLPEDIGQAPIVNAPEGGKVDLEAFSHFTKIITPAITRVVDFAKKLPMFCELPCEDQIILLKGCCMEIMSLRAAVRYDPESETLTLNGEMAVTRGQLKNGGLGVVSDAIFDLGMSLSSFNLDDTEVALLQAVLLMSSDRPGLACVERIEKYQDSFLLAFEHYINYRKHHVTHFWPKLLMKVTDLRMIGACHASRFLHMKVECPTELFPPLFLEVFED
Nature of the assay: Reporter gene (Dual-Glo luciferase) agonist activity assay in HEK293T cells, THRβ. The class given is cell-based. The settings on record: ratio of EC50 THRα/THRβ. The source says: Experimental Example 2: Detection of Agonist Activities of Compounds Against THRα and THRβ Based on Reporter Gene Activity Assay Method
1.1 Construction and Preparation of Plasmids pGAL4-THR-LBD and pG5-Luc
The pGAL4-THRα-LBD and pGAL4-THRβ-LBD plasmids used in the reporter gene assay system were constructed by a conventional molecular cloning method comprising the following main steps: the cDNA sequences of THRα (NM_003250) and THRβ(NM_000461) corresponding to the amino acid sequences of THRα (163-407AA) and THRβ(217-461AA) were inserted into the BamHI and NotI enzyme digestion sites of the pGAL4 vector by the PCR technique respectively to obtain the pGAL4-THRα-LBD and pGAL4-THRβ-LBD plasmids; the pG5-Luc (#E249A) and pRL-TK (#E2241) plasmids were purchased from Promega; the plasmids were transfected into the E. coli DH5a by the CaCl2 method, and after further culture and amplification, the plasmids were purified by Plasmid Extraction Kits (TIANGEN, #D107) to obtain the corresponding plasmid DNAs.
1.2 Co-Transfection of Plasmids into HEK293T Cells and Treatment with Compounds
The HEK293T cells were inoculated into a 96-well plate at a density of 1×10^4/well the day before plasmid transfection. Cell transfection was conducted according to the instructions of the transfection reagent FuGENE® HD (Promega, #E2311). The main steps were as follows: taking one well as an example here, the plasmids pGAL4-THRα-LBD or pGAL4-THRβ-LBD, pG5-Luc, and pRL-TK were added in the proportions of 20 ng, 50 ng, and 5 ng to 10 μL of Opti-MEM™ I medium (Gibco, #11058021) and mixed well; subsequently, 0.25 μL of FuGENE® HD was added, mixed well, and then left at room temperature for 5 min; afterwards, […] was added to the cell wells containing 100 μL of culture medium. After cell co-transfection for 6 h, the compound was diluted in a 3-fold gradient with dimethyl sulfoxide at the highest concentration of 1 μM. The compound was added to the cell culture medium at a total of 10 concentrations for treatment for 24 h. There were a total of two duplicate wells for each concentration. Triiodothyronine (T3) was used as the positive control.
1.3 Dual-Glo Luciferase Assay
After the cells were treated with the compound for 24 h, the cells were assayed according to the instructions of Dual-Glo® Luciferase Assay System (Promega, #E2940). The main steps were as follows: 50 μL of culture medium was aspirated from each well and discarded, and then 50 μL of Dual-Glo® Luciferase reagent was added and oscillated at room temperature for 10 min; 80 μL of lysis reaction solution was measured into a white opaque optiPlate-96-well plate, and the luminescence signal value (Firefly-Luc) of the Firefly luciferase was detected using an MD i3x multi-mode microplate reader; 40 μL of Dual-Glo® Stop & Glo® reagent was then added, and oscillated at room temperature for 10 min; the luminescence signal value (Renilla-Luc) of the Renilla luciferase was then detected using an MD i3x multi-mode microplate reader. The Firefly-Luc/Renilla-Luc ratio was used as the activation activity of the compound against THR, and was normalized against the ratio in the vehicle DMSO group; the dose-response curve was fitted with four parameters using the GraphPad Prism6.0 software, and the EC50 value was calculated.

In assay [2] the target is T2, THRα LBD (His-GST-dLBT-THRα LBD) (Homo sapiens, UniProt P10827).
T2 construct: made in house; host or cells: E. coli BL21 (DE3)
T2 sequence (P10827 163-407 isoform P10827-2): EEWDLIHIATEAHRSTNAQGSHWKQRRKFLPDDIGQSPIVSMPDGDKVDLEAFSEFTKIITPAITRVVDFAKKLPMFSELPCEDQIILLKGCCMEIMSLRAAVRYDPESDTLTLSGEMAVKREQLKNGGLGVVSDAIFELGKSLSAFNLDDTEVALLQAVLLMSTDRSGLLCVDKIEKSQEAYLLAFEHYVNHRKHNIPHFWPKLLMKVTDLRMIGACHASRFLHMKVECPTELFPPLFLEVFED
As to the kind of experiment: THR-FRET (time-resolved fluorescence resonance energy transfer) agonist activity assay, THRα. In kind it is biochemical. The settings on record: 24 h at room temperature. The source says: (§1) Experimental Example 1: Detection of Agonist Activities of Compounds Against THRα/β Based on Time-Resolved Fluorescence Resonance Energy Transfer (THR-FRET)
(§2) 1. Construction of THRα/β Overexpression Vectors
(§3) By visiting NCBI, the THRα/β LBD domain sequences were found. The pET21-His-GST-dLBT-THRα LBD and pET21-His-GST-dLBT-THRβLBD overexpression vectors were constructed by the fusion method, and sequenced to confirm the accuracy of the sequences.
(§4) 2. Prokaryotic Expression of Recombinant Proteins in E. coli
(§5) The THRα LBD and THRβLBD overexpression vectors confirmed by sequencing were transfected into E. coli cells BL21 (DE3), and spread on an ampicillin-resistant agar plate. Monoclones were picked out and amplified in an LB medium, and transferred into 1 L LB at a ratio of 1:100 for large-scale culture. When the OD value was at 0.8 to 1.2, 0.5 mM isopropyl-beta-D-thiogalactopyranoside (IPTG) was added, and induced overnight at 18° C. The bacteria were harvested, disrupted, and purified via the GST column and the molecular sieve to obtain two proteins His-GST-dLBT-THRα LBD and His-GST-dLBT-THRβLBD.
(§6) 3. Preparation of Compounds and Formulation of Reaction System
(§7) The proteins were taken out from a refrigerator at −80° C. The protein s with the GST-tagged THRα/p LBD domain and the Eu-labelled GST antibodies were thawed slowly on ice, and an assay buffer containing a final concentration of 5 mM dithiothreitol (DTT) was formulated.
(§8) 3.1 Preparation of Compounds
(§9) The starting concentration of the compound was 10 μM (in DMSO). The compound (100 μM in DMSO) was subjected to 3-fold isogradient dilution with DMSO to obtain a total of 11 isogradient concentrations. Subsequently, the above compounds at the isogradient concentration were further subjected to 50-fold dilution with an assay buffer containing 5 mM DTT.
(§10) 3.2 Formulation of THR-FRET Reaction System
(§11) The final concentrations of all components were calculated based on a system with a final volume of 20 µL per well. To […] of assay buffer containing 5 mM DTT, the GST-tagged THRα/β proteins, the SRC2 ([…]) polypeptide, XL665 (Cisobio, #610SAXLB), and the Eu-labeled GST antibody were added, and the final concentrations were 2 nM, 200 nM, 0.05 nM, and 7.6 nM respectively to formulate 18 μL of reaction mixture of the proteins, polypeptide, and antibody per well.
(§12) 18 μL of reaction mixture and 2 μL of diluted compound were added into an optiplate-384-well plate, and reacted at room temperature for 24 h.
(§13) The plate was read using an MD i3x multi-mode microplate reader with the excitation and emission wavelengths of 340 nm and 665 nm, respectively. The intensity of light at a wavelength of 616 nm generated by europium excited by 340 nm wavelength light from the MD i3x multi-mode microplate reader was used as the background. According to the different activation degrees of different compounds against THRα and THRβ, the intensity of the emission light at a wavelength of 665 nm generated by exciting XL665 with the exciting light at a wavelength of 616 nm was varied. The intensity ratio between these two light wavelengths (665 nm, 616 nm) was used as the activation activity of the compound against THRα or THRβ, and was normalized against the ratio in the vehicle DMSO group. The dose-response curve was fitted with four parameters using the GraphPad Prism 6.0 software, and the EC50 value was calculated.

Assay [3] addresses T3, THRβ LBD (His-GST-dLBT-THRβLBD) (Homo sapiens, UniProt P10828).
T3 construct: made in house; host or cells: E. coli BL21 (DE3)
T3 sequence (P10828 217-461 limits assumed): T1 sequence (P10828 217-461)
As to the kind of experiment: THR-FRET (time-resolved fluorescence resonance energy transfer) agonist activity assay, THRβ. In kind it is biochemical. The conditions noted are these: for EC50: 24 h at room temperature; for Selectivity (THRα/THRβ): ratio of EC50 THRα/THRβ.
Excerpt: as §1, §2, §3, §4, §5, §6, §7, §8, §9, §10, §11, §12, §13

Molecules are shown by their SMILES. Bounds are passed on as bounds.

On to `O=c1cnn(-c2cc(Cl)c(Cn3ccc(=O)c4ccccc43)c(Br)c2)c(=O)[nH]1` [Compound 3], for which the results for the “Selectivity (THRα/THRβ)” value in assay [1] and in assay [3] were “† (5 ≥ THRα/β)” and “†† (10 > THRα/β > 1)”, respectively. Also, the EC50 in assay [2] and in assay [3] was 100 to 1000 nM throughout.
On to `O=c1cnn(-c2cc(Cl)c(Cn3ccc(=O)c4c(Cl)cccc43)c(Cl)c2)c(=O)[nH]1` [Compound 13], for which the “Selectivity (THRα/THRβ)” value in assay [1] is listed as “† (5 ≥ THRα/β)”; in assay [3] it was “†† (10 > THRα/β > 1)”. Besides, the EC50 lay within 1000 to 10000 nM in assay [2] and 100 to 1000 nM in assay [3].
On to `Cc1cccc2c1c(=O)ccn2Cc1c(Cl)cc(-n2ncc(=O)[nH]c2=O)cc1Cl` [Compound 14], for which the entries for the “Selectivity (THRα/THRβ)” value in assay [1] and in assay [3] were “† (5 ≥ THRα/β)” and “†† (10 > THRα/β > 1)”, respectively. Moreover, the EC50 in assay [2] and in assay [3] was 100 to 1000 nM in each case.
For `Cc1cccc2c1c(=O)ccn2Cc1c(Cl)cc(-n2ncc(=O)[nH]c2=O)cc1Br` [Compound 17], the “Selectivity (THRα/THRβ)” value in assay [1] is listed as “††† (20 ≥ THRα/β > 10)”; in assay [3], “†† (10 > THRα/β > 1)”. The EC50 in assay [2] is 100 to 1000 nM; in assay [3] it was below 50 nM.
With `Cc1cccc2c1c(=O)ccn2Cc1c(Br)cc(-n2ncc(=O)[nH]c2=O)cc1Br` [Compound 18], the “Selectivity (THRα/THRβ)” value in assay [1] was “†† (10 ≥ THRα/β > 5)”; in assay [3], “†† (10 > THRα/β > 1)”. Further, the values for the EC50 in assay [2] and in assay [3] were 50 to 100 nM and below 50 nM, respectively.
The like results for `O=c1[nH]c(=O)n(-c2cc(Cl)c(Cn3ccc(=O)c4ccccc43)c(Cl)c2)nc1C(F)F` [Compound 28] were, in that order, “†††† (THRα/β > 20)”, “†† (10 > THRα/β > 1)”, 100 to 1000 nM and below 50 nM.
On to `O=c1[nH]c(=O)n(-c2cc(Br)c(Cn3ccc(=O)c4ccccc43)c(Br)c2)nc1C(F)F` [Compound 29], for which the “Selectivity (THRα/THRβ)” value in assay [1] was “†††† (THRα/β > 20)”; in assay [3] it was “†† (10 > THRα/β > 1)”. Moreover, the EC50 is 50 to 100 nM in assay [2] and below 50 nM in assay [3].
The matching figures for `O=c1[nH]c(=O)n(-c2cc(Cl)c(Cn3ccc(=O)c4ccccc43)c(Br)c2)nc1C(F)F` [Compound 30]: “†††† (THRα/β > 20)”, “†† (10 > THRα/β > 1)”, 100 to 1000 nM and below 50 nM.
The matching figures for `Nc1nn(-c2cc(Cl)c(Cn3ccc(=O)c4ccccc43)c(Cl)c2)c(=O)[nH]c1=O` [Compound 32]: “† (5 ≥ THRα/β)”, “†† (10 > THRα/β > 1)”, 1000 to 10000 nM and 100 to 1000 nM.
As to `C=Cc1nn(-c2cc(Cl)c(Cn3ccc(=O)c4ccccc43)c(Cl)c2)c(=O)[nH]c1=O` [Compound 35], the “Selectivity (THRα/THRβ)” value in assay [1] was “† (5 ≥ THRα/β)”; in assay [3], “†† (10 > THRα/β > 1)”. The EC50 lay within 1000 to 10000 nM in assay [2] and 100 to 1000 nM in assay [3].
The like results for `O=c1[nH]c(=O)n(-c2cc(Cl)c(Cn3ccc(=O)c4ccccc43)c(Cl)c2)nc1CF` [Compound 37] were, in that order, “†††† (THRα/β > 20)”, “†† (10 > THRα/β > 1)”, 100 to 1000 nM and 50 to 100 nM.
In the case of `Cc1nn(-c2cc(Cl)c(Cn3ccc(=O)c4ccccc43)c(Cl)c2)c(=O)[nH]c1=O` [Compound 41], the “Selectivity (THRα/THRβ)” value in assay [1] is reported as “† (5 ≥ THRα/β)”; in assay [3] it was “†† (10 > THRα/β > 1)”. Besides, the results for the EC50 in assay [2] and in assay [3] were 1000 to 10000 nM and 100 to 1000 nM, respectively.
As for `Cc1nn(-c2cc(Br)c(Cn3ccc(=O)c4ccccc43)c(Br)c2)c(=O)[nH]c1=O` [Compound 43], the “Selectivity (THRα/THRβ)” value is “† (5 ≥ THRα/β)” in assay [1] and “†† (10 > THRα/β > 1)” in assay [3]. Besides, the EC50 in assay [2] lay in the range of 100 to 1000 nM; in assay [3], 50 to 100 nM.
Take `Cc1nn(-c2cc(Cl)c(Cn3ccc(=O)c4c(C)cccc43)c(Cl)c2)c(=O)[nH]c1=O` [Compound 44]: the entries for the “Selectivity (THRα/THRβ)” value in assay [1] and in assay [3] were “† (5 ≥ THRα/β)” and “†† (10 > THRα/β > 1)”, respectively. Further, the results for the EC50 in assay [2] and in assay [3] were 100 to 1000 nM and 50 to 100 nM, respectively.

The values above are taken from patent US20260242350A1, “POLYCYCLIC THYROID HORMONE BETA RECEPTOR AGONIST AND USE THEREOF” (CASCADE PHARMACEUTICALS, INC., priority 2023, published 2026).
